The source of these data is patent publication US8906933B2, “Dihydropyrimidin-2(1H)-one compounds as neurokinin-3 receptor antagonists” (N30 Pharmaceuticals, Inc., priority 2010, dated 2014).

The target of one test is GSNOR (Homo sapiens (Human), UniProt P11766). Put plainly: GSNOR IC50 (method in incorporated applications). Type of test: biochemical.
Test [1] deals with T1, human NK3 receptor (Homo sapiens (Human), UniProt P29371). In words: Human NK3 receptor binding assay at 1 uM. Conditions: 1 μM test compound; [3H]SR142801, CHO cell membranes; read-out: percent inhibition at 1 μM. As to the method: Antagonist activity was evaluated at a concentration of 1 μM for a representative subset of test compounds, and the results were expressed as the percent inhibition at that concentration.
Each test compound was evaluated at a single concentration of 1 μM. […] The results are expressed as a percent of control specific binding ((measured specific binding/control specific binding)×100) obtained in the presence of the test compounds.

Test [2] has as its target T1, human NK3 receptor. Put plainly: Human NK3 receptor binding assay at 10 μM. Particulars: 10 μM test compound; [3H]SR142801, CHO cell membranes; read-out: percent inhibition at 10 μM. As to the method:
Antagonist activity was evaluated at a concentration of 10 μM for a representative subset of test compounds, and the results were expressed as the percent inhibition at that concentration.
Each test compound was evaluated at a single concentration of 10 μM. […] The results are expressed as a percent of control specific binding ((measured specific binding/control specific binding)×100) obtained in the presence of the test compounds.

The target of test [3] is T1, human NK3 receptor. In words: biochemical.
Procedure: Evaluation of the affinity of compounds for the human NK3 receptor from transfected CHO cells was performed using an antagonist radioligand binding assay. The antagonist activity of a representative subset of test compounds was evaluated over a range of concentrations, and the results were expressed as IC50 values.
Receptor binding assays were performed using crude membranes prepared from CHO cells expressing human NK3 receptor. Osanetant (SR142801), a non-peptide NK3 antagonist, was used as a ligand, and SB222200 was used as a positive control reference compound. The assay was performed with cell membrane homogenates (24 μg protein) incubated for 120 min at 22° C. with 0.4 nM [^3H]SR142801 in the absence or presence of the test compound in a buffer containing 20 mM Hepes/NaOH (pH 7.4), 120 mM NaCl, 1 mM MnCl2, 0.01% bacitracin, 0.002% aprotinin and 0.1% BSA. Following incubation, the samples were filtered rapidly under vacuum through glass fiber filters (GF/B, Packard) that had been presoaked with 0.3% PEI. The filters were rinsed several times with ice-cold 50 mM Tris/HCl using a 96-sample cell harvester (Unifilter, Packard), dried, and counted for radioactivity in a scintillation counter (Topcount, Packard) using a scintillation cocktail (Microscint 0, Packard). […] The standard reference compound, SB222200, was tested in each experiment. Nonspecific binding was determined in the presence of 10 μM SB222200. The specific ligand binding to the receptor is defined as the difference between the total binding and the nonspecific binding. The IC50 values (concentration causing a half-maximal inhibition of control specific binding) and Hill coefficients (nH) were determined by non-linear regression analysis of the competition curves generated with mean replicate values using Hill equation curve fitting (Y=D+[(A−D)/(1+(C/C50)^nH)], where Y=specific binding, D=minimum specific binding, A=maximum specific binding, C=compound concentration, C50=IC50, and nH=slope factor). […] The inhibition constants (Ki) were calculated using the Cheng Prusoff equation (Ki=IC50/(1+(L/KD)), where L=concentration of radioligand in the assay, and KD=affinity of the radioligand for the receptor). A scatchard plot was used to determine the Kd.
Test [4] deals with T1, human NK3 receptor. In words: Human neurokinin NK3 receptor antagonist effect (agonist-induced Ca2+ mobilization, CHO cells). The test is classed as cell-based. Conditions: 10 uM; response to 1 nM [MePhe7]-NKB, CHO cells transfected with human NK3 receptor. As to the method: This model evaluates the antagonist activity of compounds in CHO cells transfected with the human NK3 receptor. Antagonist activity is determined by measuring the effect of compounds on agonist-induced cytosolic Ca^2+ ion mobilization using a fluorimetric detection method.
The cells are suspended in DMEM buffer (Invitrogen) supplemented with 0.1% FCS and distributed in 96-well microplates at a density of 3×10^4 cells/well. The fluorescent probe (Calcium4, Molecular Device) is mixed with probenicid in HBSS buffer plus 20 mM Hepes (pH 7.4) (Invitrogen) and added into each well. The probe is allowed to equilibrate with the cells for 60 minutes at 37° C. followed by a 15 minute incubation at 22° C. Thereafter, the assay plates are positioned in a microplate reader (CellLux, PerkinElmer) and the test compound, reference antagonist or HBSS buffer is added. 5 minutes later, 1 nM [MePhe^7]-NKB or HBSS buffer (basal control) is added, and changes in fluorescence intensity are measured.
The standard reference antagonist is SB 222200, which is tested in each experiment at several concentrations to generate a concentration-response curve from which an IC50 value can be calculated.

Test [5] addresses T1, human NK3 receptor. Put plainly: Human neurokinin NK3 receptor agonist effect (Ca2+ mobilization, CHO cells). Particulars: highest tested concentration; CHO cells transfected with human NK3 receptor. Type of test: cell-based. As to the method: This model evaluates the agonist activity of compounds in CHO cells transfected with the human NK3 receptor. Agonist activity is determined by measuring the effect of compounds on cytosolic Ca^2+ ion mobilization using a fluorimetric detection method.
The transfected CHO cells are suspended in DMEM buffer (Invitrogen) supplemented with 0.1% FCS, then distributed in 96-well microplates at a density of 3×10^4 cells/well. The fluorescent probe (Calcium4, Molecular Device) is mixed with probenicid in HBSS buffer plus 20 mM Hepes (pH 7.4) (Invitrogen) and added into each well. The probe is allowed to equilibrate with the cells for 60 minutes at 37° C. followed by a 15 minute incubation at 22° C. Thereafter, the assay plates are positioned in a microplate reader (CellLux, PerkinElmer) and the test compound, reference agonist or HBSS buffer (basal control) is added. Changes in fluorescence intensity, which varies proportionally to the free cytosolic Ca^2+ ion concentration, are then measured. For stimulated control measurements, [MePhe^7]-NKB at 10 nM is added in separate assay wells, and the results are expressed as a percent of the control response to 10 nM [MePhe^7]-NKB.
The standard reference agonist is [MePhe^7]-NKB, which is tested in each experiment at several concentrations to generate a concentration-response curve from which an EC50 value can be calculated.
Background: A change in cytosolic calcium serves as a functional read-out for many receptors and channels.

T1 sequence (P29371 whole entry): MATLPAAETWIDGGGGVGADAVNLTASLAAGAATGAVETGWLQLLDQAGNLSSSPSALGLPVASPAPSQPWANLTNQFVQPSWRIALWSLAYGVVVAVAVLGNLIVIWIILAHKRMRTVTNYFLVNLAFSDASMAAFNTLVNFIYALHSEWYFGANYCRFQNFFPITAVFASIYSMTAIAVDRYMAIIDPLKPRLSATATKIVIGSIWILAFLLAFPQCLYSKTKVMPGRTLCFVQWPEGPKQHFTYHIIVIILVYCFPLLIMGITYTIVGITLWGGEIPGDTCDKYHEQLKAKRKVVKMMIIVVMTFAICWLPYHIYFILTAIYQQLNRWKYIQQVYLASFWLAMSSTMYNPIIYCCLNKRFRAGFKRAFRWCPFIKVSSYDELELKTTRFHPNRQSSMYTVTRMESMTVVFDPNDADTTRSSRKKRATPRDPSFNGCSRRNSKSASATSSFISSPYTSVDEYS
GSNOR, sequence (P11766 whole entry): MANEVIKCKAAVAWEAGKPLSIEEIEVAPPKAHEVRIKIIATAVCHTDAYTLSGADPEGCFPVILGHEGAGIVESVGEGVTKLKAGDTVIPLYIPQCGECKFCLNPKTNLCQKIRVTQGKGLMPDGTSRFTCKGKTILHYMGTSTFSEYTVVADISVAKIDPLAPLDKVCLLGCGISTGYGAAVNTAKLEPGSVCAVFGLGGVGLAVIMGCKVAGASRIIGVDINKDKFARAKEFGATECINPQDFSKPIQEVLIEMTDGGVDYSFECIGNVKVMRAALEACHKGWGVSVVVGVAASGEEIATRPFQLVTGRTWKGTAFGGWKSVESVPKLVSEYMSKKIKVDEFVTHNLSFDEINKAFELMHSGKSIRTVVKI

As a reminder, the IC50 is the concentration that gives 50% inhibition. On GSNOR, `Cn1cc(C2=C(c3ccsc3)C(c3ccc(C(=O)O)c(O)c3)NC(=O)N2)cn1` (racemic) [2-hydroxy-4-(6-(1-methyl-1H-pyrazol-4-yl)-2-oxo-5-(thiophen-3-yl)-1,2,3,4-tetrahydropyrimidin-4-yl)benzoic acid] yielded an IC50 of 39 nM.
On to `Cn1cc(C2=C(c3ccsc3)[C@H](c3ccc(C(=O)O)c(O)c3)NC(=O)N2)cn1` [2-hydroxy-4-(6-(1-methyl-1H-pyrazol-4-yl)-2-oxo-5-(thiophen-3-yl)-1,2,3,4-tetrahydropyrimidin-4-yl)benzoic acid], for which, on GSNOR, the IC50 worked out at 23 nM.
What is called inhibition is how much of the control response was suppressed. As to `CCOc1cc(C2NC(=O)NC(c3ccccc3)=C2c2ccccc2)cc(C#N)c1O` (stereo not drawn) [3-ethoxy-2-hydroxy-5-(2-oxo-5,6-diphenyl-1,2,3,4-tetrahydropyrimidin-4-yl)benzonitrile], the inhibition at 1 µM at human NK3 receptor [1] was > 50%. For the same compound, at human NK3 receptor [2], the inhibition at 10 µM is > 50%. The IC50 on human NK3 receptor [3] was ≤ 1000 nM.
As to `CCOc1cc(C2C(c3ccccc3)=C(c3ccccc3)NC(=O)N2C)cc([N+](=O)[O-])c1O` (stereo not drawn) [4-(3-ethoxy-4-hydroxy-5-nitrophenyl)-3-methyl-5,6-diphenyl-3,4-dihydropyrimidin-2(1H)-one], the inhibition at 1 µM at human NK3 receptor [1] was > 50%. The IC50 at human NK3 receptor [3] was ≤ 1000 nM.
In the case of `CCOc1cc(C2NC(=O)NC(c3ccccc3)=C2c2cccc(C)c2)cc([N+](=O)[O-])c1O` (stereo not drawn) [4-(3-ethoxy-4-hydroxy-5-nitrophenyl)-6-phenyl-5-m-tolyl-3,4-dihydropyrimidin-2(1H)-one], the inhibition at 1 µM on human NK3 receptor [1] was > 50%. On human NK3 receptor [3], the IC50 was ≤ 1000 nM.
Turning to `CCOc1cc(C2NC(=O)NC(c3ccccc3)=C2c2ccccc2)cc2oc(=O)[nH]c12` (stereo not drawn) [4-ethoxy-6-(2-oxo-5,6-diphenyl-1,2,3,4-tetrahydropyrimidin-4-yl)benzo[d]oxazol-2(3H)-one], on human NK3 receptor [1], the inhibition at 1 µM was > 50%. For the same compound, the IC50 on human NK3 receptor [3] is ≤ 1000 nM.
The like results for `CCOc1cc(C2NC(=O)NC(c3ccccc3)=C2c2cccc(Cl)c2)cc([N+](=O)[O-])c1O` (stereo not drawn) [5-(3-chlorophenyl)-4-(3-ethoxy-4-hydroxy-5-nitrophenyl)-6-phenyl-3,4-dihydropyrimidin-2(1H)-one] were, in that order, > 50% and ≤ 1000 nM.
As for `CCOc1cc(C2NC(=O)NC(c3ccccc3)=C2C2CCCCC2)cc([N+](=O)[O-])c1O` (stereo not drawn) [5-cyclohexyl-4-(3-ethoxy-4-hydroxy-5-nitrophenyl)-6-phenyl-3,4-dihydropyrimidin-2(1H)-one], the antagonist effect result on human NK3 receptor [4] was “antagonist effect was seen”. The inhibition at 1 µM at human NK3 receptor [1] was > 50%. The inhibition at 10 µM at human NK3 receptor [2] is > 50%. Besides, on human NK3 receptor [3], the IC50 was ≤ 100 nM. The agonist effect result at human NK3 receptor [5] is reported as “no effect was seen”.
